Experimental data from patent publication US8153360B2, “Flavivirus fusion inhibitors” (The Administrators of the Tulane Educational Fund, priority 2002, dated 2012).

Key:
[1] = system: pseudotype expressing the envelope glycoprotein of murine leukemia virus (MLV); test: MLV pseudotype infectivity, luciferase activity (peptide/cytotoxicity control); format: cell-based; details: peptide about 25 μM (asterisked peptides 10 μM or less); for MLV number of luciferase units (lumens) produced after infection: 72 h at 37° C., vehicle 439,158; for Percent inhibition (MLV pseudotype infectivity): relative to DMSO vehicle
[2] = system: H77-E1E2 pseudotype expressing envelope glycoproteins E1 and E2 of the H77 strain of HCV; test: HCV pseudotype infectivity, luciferase activity of cell lysates; format: cell-based, hepatitis C virus; details: peptide about 25 μM (asterisked peptides 10 μM or less); for H77-E1E2 number of luciferase units (lumens) produced after infection: 72 h at 37° C., vehicle 113,733; for Percent Inhibition (H77-E1E2 HCV pseudotype infectivity): relative to DMSO vehicle
HIV-1 [3] = details: cited from earlier work
HIV-1 [4] = details: preliminary results from phase III clinical trials; cited from earlier work

| Substance | MLV number of luciferase units (lumens) produced after infection [1] | Percent inhibition (MLV pseudotype infectivity) [1] [%] | H77-E1E2 number of luciferase units (lumens) produced after infection [2] | Percent Inhibition (H77-E1E2 HCV pseudotype infectivity) [2] [%] | Inhibition of HIV-1 infectivity (HIV-1 [3]) | Effect on HIV-1 load in AIDS patients (HIV-1 [4]) |
| --- | --- | --- | --- | --- | --- | --- |
| AALVVAQLLRIPQAIMDM [Peptide 73] | 433,001 luciferase units (lumens) | 1.40 | 100,666 luciferase units (lumens) | – | – | – |
| AHWGVLAGIKYFSMVGNW [Peptide 76] | 473,757 luciferase units (lumens) | −7.88 | 96,283 luciferase units (lumens) | – | – | – |
| ALYVGDLCGSVFLVGQLF [Peptide 65] | 491,789 luciferase units (lumens) | −11.98 | 87,726 luciferase units (lumens) | – | – | – |
| CGSVFLVGQLFTFSPRHH [Peptide 66] | 189,683 luciferase units (lumens) | 56.81 | 23,387 luciferase units (lumens) | – | – | – |
| DAILHTPGCVPCVREGNA [Peptide 57] | 331,852 luciferase units (lumens) | 24.44 | 169,860 luciferase units (lumens) | – | – | – |
| GCVPCVREGNASRCWVAV [Peptide 58] | 329,895 luciferase units (lumens) | 24.98 | 118,767 luciferase units (lumens) | – | – | – |
| GIKYFSMVGNWAKVLVVL [Peptide 77] | 321,076 luciferase units (lumens) | 26.89 | 56,425 luciferase units (lumens) | – | – | – |
| GQLFTFSPRHHWTTQDCN [Peptide 67] | 357,577 luciferase units (lumens) | 28.58 | 64,601 luciferase units (lumens) | – | – | – |
| GSATLCSALYVGDLCGSV [Peptide 64] | 316,948 luciferase units (lumens) | 27.83 | 113,108 luciferase units (lumens) | – | – | – |
| HRMANMMMNWSPTAALV [Peptide 71] | 533,765 luciferase units (lumens) | −21.54 | 83,489 luciferase units (lumens) | – | – | – |
| IMDMIAGAHWGVLAGIKY [Peptide 75] | 420,026 luciferase units (lumens) | 4.36 | 113,359 luciferase units (lumens) | – | – | – |
| LLRIPQAIMDMIAGAHWG [Peptide 74] | 467,876 luciferase units (lumens) | −6.54 | 32,888 luciferase units (lumens) | – | – | – |
| LPTTQLRRHIDLLVGSAT [Peptide 62] | 415,014 luciferase units (lumens) | 5.50 | 115,966 luciferase units (lumens) | – | – | – |
| LVVLLLFAGVDAETHVTG [Peptide 79] | 740,034 luciferase units (lumens) | −68.51 | 101,702 luciferase units (lumens) | – | – | – |
| MMNWSPTAALVVAQLLRI [Peptide 72] | 392,680 luciferase units (lumens) | 10.58 | 75,763 luciferase units (lumens) | – | – | – |
| PRHHWTTQDCNCSIYPGH [Peptide 68] | 498,991 luciferase units (lumens) | −13.62 | 79,297 luciferase units (lumens) | – | – | – |
| QDCNCSIYPGHITGHRMA [Peptide 69] | 354,027 luciferase units (lumens) | 19.39 | 196,922 luciferase units (lumens) | – | – | – |
| RHIDLLVGSATLCSALYV [Peptide 63] | 438,440 luciferase units (lumens) | 0.16 | 57,915 luciferase units (lumens) | – | – | – |
| SAYQVRNSSGLYHVTNDC [Peptide 53] | 443,528 luciferase units (lumens) | −9.95 | 113,469 luciferase units (lumens) | – | – | – |
| SCLTVPASAYQVRNSSGL [Peptide 52] | 533,179 luciferase units (lumens) | −21.4 | 133,259 luciferase units (lumens) | – | – | – |
| SIVYEAADAILHTPGCVP [Peptide 56] | 433,459 luciferase units (lumens) | 1.30 | 65,612 luciferase units (lumens) | – | – | – |
| SSGLYHVTNDCPNSSIVY [Peptide 54] | 280,113 luciferase units (lumens) | 36.22 | 74 luciferase units (lumens) | – | – | – |
| TNDCPNSSVVYEAADAIL [Peptide 55] | 447,957 luciferase units (lumens) | −2.00 | 112,470 luciferase units (lumens) | – | – | – |
| VATRDGKLPTTQLRRHID [Peptide 61] | 423,925 luciferase units (lumens) | 3.47 | 148,796 luciferase units (lumens) | – | – | – |
| VGNWAKVLVVLLLFAGVD [Peptide 78] | 402,953 luciferase units (lumens) | 8.24 | 137,700 luciferase units (lumens) | – | – | – |
| WVAVTPTVATRDGKLPTT [Peptide 59] | 446,063 luciferase units (lumens) | −1.57 | 91,794 luciferase units (lumens) | 19.29 | – | – |
| WVAVTPTVATRDGKLPTT [Peptide 60] | 340,384 luciferase units (lumens) | 22.49 | 98,766 luciferase units (lumens) | 13.16 | – | – |
| YPGHITGHRMANMMMNW [Peptide 70] | 553,120 luciferase units (lumens) | −25.95 | 15,717 luciferase units (lumens) | – | – | – |
| enfuvirtide | – | – | – | – | inhibit HIV-1 infectivity | substantially reduce HIV-1 load |
